In ChEMBL document CHEMBL4715823, “Homogeneous Assay for Target Engagement Utilizing Bioluminescent Thermal Shift” (ACS Med Chem Lett, 2018):
Activity calls are given as the source filed them. No cut-off for these calls is given here.

Legend:
[1] = target: Mitogen-activated protein kinase 14 (Homo sapiens) (UniProt Q16539); conditions: HeLa, dose 50.0 µM
[2] = target: Mitogen-activated protein kinase 14 (Homo sapiens) (UniProt Q16539); conditions: HeLa, dose 50.0 µM; remark: listed apart in the source

Chain of Mitogen-activated protein kinase 14 (Homo sapiens) (Q16539 whole entry): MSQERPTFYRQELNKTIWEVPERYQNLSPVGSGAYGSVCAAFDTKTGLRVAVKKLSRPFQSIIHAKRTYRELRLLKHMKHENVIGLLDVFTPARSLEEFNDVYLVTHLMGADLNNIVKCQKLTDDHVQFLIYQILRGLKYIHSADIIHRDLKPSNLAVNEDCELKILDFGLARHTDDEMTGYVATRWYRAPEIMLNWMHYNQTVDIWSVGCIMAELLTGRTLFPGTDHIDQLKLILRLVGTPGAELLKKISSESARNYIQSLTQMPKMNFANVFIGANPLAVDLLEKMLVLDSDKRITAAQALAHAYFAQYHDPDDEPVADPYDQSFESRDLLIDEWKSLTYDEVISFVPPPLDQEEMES

Compound: Cc1ncc(-c2ccnc(Nc3ccc(S(C)(=O)=O)cc3)n2)n1C(C)C
- Tm [1]: inactive

Compound: C/C(O)=C(\C#N)C(=O)Nc1cc(Br)ccc1Br
- ΔTm [2]: 3.43 °C

Compound: CC(C)(C)n1nc(-c2ccc(Cl)cc2)c2c(N)ncnc21
- ΔTm [2]: 1.17 °C

Compound: Oc1ccc(-c2nc(-c3ccc(F)cc3)c(-c3ccncc3)[nH]2)cc1
- ΔTm [2]: 7.8 °C
